Assay results: ChEMBL document CHEMBL1201862, “PubChem BioAssay data set” (2004)
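Five concentrations, 48 hours, 96-well plates. At the GI50, growth is halved.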 Activity calls are given as the source filed them. Rule as the data show it: active = GI50 up to about 1.1 µM and inactive = higher.

Legend:
Assay in all cases: inhibition of tumour cell growth, NCI panel, 48 h
[1] = system: NCI-H522
[2] = system: Hs-578T
[3] = system: NCI/ADR-RES
[4] = system: CAKI-1
[5] = system: EKVX
[6] = system: SK-MEL-5
[7] = system: OVCAR-5
[8] = system: HT-29
[9] = system: SN12C
[10] = system: IGROV-1
[11] = system: PC-3
[12] = system: SF-295
[13] = system: KM12
[14] = system: SF-539
[15] = system: A498

Measured: GI50

CCCCCCCCCCOC1C(C(C)OCCCN(C)C)OC2OC3(CCCCC3)OC21 (configuration not stated)
inactive: [1] 17.9 µM | [2] 18.1 µM | [3] 17 µM | [4] 13.7 µM | [5] 18.2 µM | [6] 15.8 µM | [7] 11.7 µM | [8] 2.41 µM | [9] 16.3 µM | [10] 14.3 µM | [11] 12.4 µM | [12] 17.5 µM

COc1ccc(-c2c3c(n(C4OC(CO)C(O)C(O)C4O)c(=S)c2C#N)CCCC3)cc1 (configuration not stated)
inactive: [13] > 100 µM | [2] > 100 µM | [14] > 100 µM | [3] > 100 µM | [4] > 100 µM | [5] > 100 µM | [6] 62.2 µM | [7] > 100 µM | [8] > 100 µM | [9] > 100 µM | [10] > 100 µM | [11] > 100 µM | [15] > 100 µM | [12] > 100 µM

Cc1ccc(/C=N/n2c(=O)[nH]c3ccccc3c2=O)cc1
inactive: [13] > 100 µM | [2] > 100 µM | [14] > 100 µM | [4] > 100 µM | [5] > 100 µM | [6] > 100 µM | [7] > 100 µM | [8] > 100 µM | [9] > 100 µM | [10] > 100 µM | [11] > 100 µM | [15] > 100 µM | [12] > 100 µM

CC(=O)N1C(=O)c2cc3ccccc3cc21
inactive: [2] > 100 µM | [14] > 100 µM | [3] > 100 µM | [5] > 100 µM | [6] > 100 µM | [7] > 100 µM | [9] > 100 µM | [10] 38.8 µM | [11] > 100 µM | [15] 24.7 µM

C[NH+]1[C@@H](Cc2ccccc2)C(=O)O[B-]1(F)c1ccccc1 (some centres not stated)
inactive: [3] > 100 µM | [5] > 100 µM | [6] > 100 µM | [7] > 100 µM | [8] > 100 µM | [9] > 100 µM | [10] > 100 µM | [11] > 100 µM | [15] > 100 µM | [12] > 100 µM

CCN(CCCOc1ccccc1)CCN(CC)CCCOc1ccccc1
inactive: [1] 14.2 µM | [13] 12.2 µM | [2] 13.5 µM | [14] 10.7 µM | [3] 20 µM | [4] 16.4 µM | [5] 12.7 µM | [6] 2.22 µM | [7] 17 µM | [8] 7.59 µM | [9] 20 µM | [10] 10.9 µM | [11] 2.52 µM | [12] 15.6 µM

Cc1cc2c(c(C(=O)NCCC(=O)O)c1)Oc1c(cc(C)cc1C(=O)NCCC(=O)O)S2
inactive: [1] > 100 µM | [13] > 100 µM | [2] > 100 µM | [14] > 100 µM | [3] > 100 µM | [4] > 100 µM | [5] > 100 µM | [7] > 100 µM | [8] > 100 µM | [9] > 100 µM | [10] > 100 µM | [11] > 100 µM | [12] > 100 µM

CCOC(=O)[C@@H]1ON2O[C@@H](OC3CCCCC3c3ccccc3)C[C@H]3OC(=O)[C@@H]1C32 (some centres not stated)
inactive: [1] 87.1 µM | [13] > 100 µM | [2] > 100 µM | [14] > 100 µM | [3] > 100 µM | [4] 51.9 µM | [5] > 100 µM | [6] > 100 µM | [7] > 100 µM | [8] > 100 µM | [9] > 100 µM | [10] > 100 µM | [15] > 100 µM | [12] > 100 µM

O=C1NC(=O)C2=C1CCC2O (configuration not stated)
inactive: [13] > 100 µM | [2] > 100 µM | [14] > 100 µM | [3] > 100 µM | [4] > 100 µM | [5] > 100 µM | [7] > 100 µM | [8] > 100 µM | [9] > 100 µM | [10] > 100 µM | [11] > 100 µM | [15] > 100 µM | [12] > 100 µM

COc1ccc(Cc2nc3cc(Cl)ccc3o2)cc1
inactive: [1] 21.2 µM | [13] 27.7 µM | [2] 49.2 µM | [14] 45.1 µM | [3] 24.2 µM | [4] 31 µM | [5] 27.2 µM | [6] 14.5 µM | [7] 50.6 µM | [8] 30.1 µM | [9] 54.5 µM | [10] 63 µM | [11] 32.3 µM | [12] 31.3 µM

O=C1OC[C@H]2[C@@H]1[C@H]1O[C@@H]2C2=C(CCC2)C1=O
inactive: [1] > 100 µM | [13] > 100 µM | [2] > 100 µM | [14] > 100 µM | [3] > 100 µM | [5] > 100 µM | [6] > 100 µM | [7] > 100 µM | [8] > 100 µM | [9] > 100 µM | [10] > 100 µM | [11] > 100 µM | [15] > 100 µM | [12] > 100 µM

Cc1ccc(N(C)S(=O)(=O)c2ccccc2)cc1
inactive: [1] > 100 µM | [13] > 100 µM | [2] > 100 µM | [14] > 100 µM | [3] > 100 µM | [4] > 100 µM | [5] 97.9 µM | [6] 67.5 µM | [7] > 100 µM | [8] > 100 µM | [9] > 100 µM | [10] > 100 µM | [11] 36.2 µM | [12] > 100 µM

CCCCCCCCCCCCOCCCCCCCCC/C=C/c1ccc2c(c1)OCCOCCOCCOCCO2
inactive: [1] 13.2 µM | [13] 16.8 µM | [2] 16.4 µM | [14] 17.4 µM | [3] 17.5 µM | [4] 17.3 µM | [5] 26.6 µM | [6] 15.5 µM | [7] 31 µM | [8] 20.7 µM | [9] 23.6 µM | [10] 21.3 µM | [11] 17.9 µM | [12] 16.3 µM

Cc1ccc(S(=O)(=O)N(CCNC(=O)c2cccc(O)c2O)c2cc3c4c(c2)Oc2cccc5c2C4(C)c2c(cccc2O3)O5)cc1
inactive: [13] > 100 µM | [2] > 100 µM | [14] 73.3 µM | [3] 2.54 µM | [4] > 100 µM | [5] 37.4 µM | [6] 22.1 µM | [7] 64.7 µM | [8] > 100 µM | [9] > 100 µM | [10] 5.93 µM | [11] 36 µM | [15] 58.6 µM | [12] > 100 µM

C[N+]1(C)C2Cc3ccccc3C1Cc1ccccc12
inactive: [1] > 100 µM | [13] > 100 µM | [2] > 100 µM | [14] > 100 µM | [3] > 100 µM | [5] > 100 µM | [6] > 100 µM | [7] > 100 µM | [8] > 100 µM | [9] > 100 µM | [10] > 100 µM | [11] 75.7 µM | [15] > 100 µM | [12] > 100 µM
